# From patent US20230133672A1, “FUSION POLYPEPTIDE COMPRISING GDF15 AND POLYPEPTIDE REGION CAPABLE OF O-GLYCOSYLATION” (LG CHEM, LTD., priority 2019, published 2023)
# Columns and labels:
# [1] = Repeated administration: feed intake in DIO mice; type: in vivo, Mouse, C57BL/6J-DIO; design: unit not given here
# Description: (§1) In addition, after administering the test substances into mice, the daily feed intake was measured, and the feeding amount was measured using an electronic scale for each breeding box, and the remaining amount was measured to calculate the daily feed intake. In case of an individual that gnawed heavily on heed, it was excluded from the measurement.
# (§2) All the experimental results obtained in the present example were expressed as mean±standard error and tested using Prism5 (version 5.01). One-way analysis of variance (ANOVA) was performed on all data, and when significance was observed, Dunnett's test was performed to find out the test groups with a significant difference from the control group (significance level: two-sided 5% and 1%, 0.1%).
# Except for the administration dose, animal number and administration cycle, most of the test processes were the same as in Example 2.1.1 above.
# The test substances were administered twice a week (Days 0, 4, 7, 11, 14, 18, 21, 25) for a total of 8 times. For comparison, the control group in which the control substance Semaglutide was administered every day was prepared, and the comparison group in which Semaglutide was administered every day was administered once a day daily, and all the administration was progressed from 9 AM.
# [2] = Single administration: feed intake in DIO mice; type: in vivo, Mouse, C57BL/6J-DIO; design: unit not given here
# Description: The pharmacological effect of the fusion polypeptides produced and purified in Example 1 above was tested in mice (C57BL/6J, 6-week-old, male, 100 mice; Raonbio).
# In the present example, DI0 mouse model (Mouse, C57BL/6J-DIO, male, 100 mice, 14-week-old (obesity feed feeding for 8 weeks)) in which obesity was induced by feeding a high-fat diet into the C57BL/6J mice for 8 weeks was used.
# The administration of the test substances HT-ID1-GDF15, HT-ID2-GDF15, and HT-ID3-GDF15 and the control substance Semaglutide (Bachem) was conducted from the next day after group separation, and the administration time was performed at 9 AM every day. Subcutaneous administration was conducted for all the control substance and test substances. For the administration route of the control substance and test substances, subcutaneous administration was selected depending on the clinically scheduled administration route.
# For all the control substance and test substances, the amount of the administration solution was set to 5 mL/kg and the administration liquid by individual was calculated on the basis of the recently measured body weight and it was administered by subcutaneous injection once on the start day of the test using a disposable syringe (1 mL). The test substances were administered only once. For comparison, the control group in which the control substance Semaglutide was administered was prepared, and the comparison group in which Semaglutide was administered was administered once a day, and all the administration was progressed from 9 AM.
# as §1, §2
substance,measurement,setting,value
"HT-ID3-GDF15: Fusion polypeptide: His-Tag, TEV cleavage site, three IgD hinges, GS linker, GDF15 (SEQ ID NO: 3)","Feed intake, Mean","[1]; Day 1, 3 nmol/kg twice a week",2.9
same,"Feed intake, Mean","[1]; Day 1, 10 nmol/kg twice a week",2.9
same,"Feed intake, Mean","[1]; Day 1, 30 nmol/kg twice a week",2.5
same,"Feed intake, Mean","[1]; Day 2, 3 nmol/kg twice a week",1.5
same,"Feed intake, Mean","[1]; Day 2, 10 nmol/kg twice a week",1.7
same,"Feed intake, Mean","[1]; Day 2, 30 nmol/kg twice a week",1.6
same,"Feed intake, Mean","[1]; Day 3, 3 nmol/kg twice a week",1.9
same,"Feed intake, Mean","[1]; Day 3, 10 nmol/kg twice a week",2.3
same,"Feed intake, Mean","[1]; Day 3, 30 nmol/kg twice a week",2.1
same,"Feed intake, Mean","[1]; Day 4, 3 nmol/kg twice a week",1.9
same,"Feed intake, Mean","[1]; Day 4, 10 nmol/kg twice a week",2.2
same,"Feed intake, Mean","[1]; Day 4, 30 nmol/kg twice a week",2.2
same,"Feed intake, Mean","[1]; Day 5, 3 nmol/kg twice a week",2.0
same,"Feed intake, Mean","[1]; Day 5, 10 nmol/kg twice a week",2.1
same,"Feed intake, Mean","[1]; Day 5, 30 nmol/kg twice a week",2.3
same,"Feed intake, Mean","[1]; Day 6, 3 nmol/kg twice a week",1.6
same,"Feed intake, Mean","[1]; Day 6, 10 nmol/kg twice a week",1.9
same,"Feed intake, Mean","[1]; Day 6, 30 nmol/kg twice a week",1.8
same,"Feed intake, Mean","[1]; Day 7, 3 nmol/kg twice a week",2.1
same,"Feed intake, Mean","[1]; Day 7, 10 nmol/kg twice a week",2.2
same,"Feed intake, Mean","[1]; Day 7, 30 nmol/kg twice a week",2.2
same,"Feed intake, Mean","[1]; Day 8, 3 nmol/kg twice a week",2.1
same,"Feed intake, Mean","[1]; Day 8, 10 nmol/kg twice a week",2.1
same,"Feed intake, Mean","[1]; Day 8, 30 nmol/kg twice a week",2.1
same,"Feed intake, Mean","[1]; Day 9, 3 nmol/kg twice a week",1.9
same,"Feed intake, Mean","[1]; Day 9, 10 nmol/kg twice a week",2.1
same,"Feed intake, Mean","[1]; Day 9, 30 nmol/kg twice a week",2.0
same,"Feed intake, Mean","[1]; Day 10, 3 nmol/kg twice a week",2.4
same,"Feed intake, Mean","[1]; Day 10, 10 nmol/kg twice a week",2.4
same,"Feed intake, Mean","[1]; Day 10, 30 nmol/kg twice a week",2.5
same,"Feed intake, Mean","[1]; Day 11, 3 nmol/kg twice a week",2.5
same,"Feed intake, Mean","[1]; Day 11, 10 nmol/kg twice a week",3.0
same,"Feed intake, Mean","[1]; Day 11, 30 nmol/kg twice a week",2.9
same,"Feed intake, Mean","[1]; Day 12, 3 nmol/kg twice a week",3.9
same,"Feed intake, Mean","[1]; Day 12, 10 nmol/kg twice a week",4.1
same,"Feed intake, Mean","[1]; Day 12, 30 nmol/kg twice a week",4.0
same,"Feed intake, Mean","[1]; Day 13, 3 nmol/kg twice a week",2.9
same,"Feed intake, Mean","[1]; Day 13, 10 nmol/kg twice a week",2.5
same,"Feed intake, Mean","[1]; Day 13, 30 nmol/kg twice a week",2.1
same,"Feed intake, Mean","[1]; Day 14, 3 nmol/kg twice a week",3.2
same,"Feed intake, Mean","[1]; Day 14, 10 nmol/kg twice a week",3.3
same,"Feed intake, Mean","[1]; Day 14, 30 nmol/kg twice a week",3.0
same,"Feed intake, Mean","[1]; Day 15, 3 nmol/kg twice a week",3.1
same,"Feed intake, Mean","[1]; Day 15, 10 nmol/kg twice a week",3.2
same,"Feed intake, Mean","[1]; Day 15, 30 nmol/kg twice a week",3.1
same,"Feed intake, Mean","[1]; Day 16, 3 nmol/kg twice a week",2.7
same,"Feed intake, Mean","[1]; Day 16, 10 nmol/kg twice a week",2.2
same,"Feed intake, Mean","[1]; Day 16, 30 nmol/kg twice a week",1.9
same,"Feed intake, Mean","[1]; Day 17, 3 nmol/kg twice a week",3.0
same,"Feed intake, Mean","[1]; Day 17, 10 nmol/kg twice a week",3.3
same,"Feed intake, Mean","[1]; Day 17, 30 nmol/kg twice a week",3.0
same,"Feed intake, Mean","[1]; Day 18, 3 nmol/kg twice a week",3.1
same,"Feed intake, Mean","[1]; Day 18, 10 nmol/kg twice a week",3.3
same,"Feed intake, Mean","[1]; Day 18, 30 nmol/kg twice a week",3.2
same,"Feed intake, Mean","[1]; Day 19, 3 nmol/kg twice a week",3.3
same,"Feed intake, Mean","[1]; Day 19, 10 nmol/kg twice a week",3.4
same,"Feed intake, Mean","[1]; Day 19, 30 nmol/kg twice a week",3.3
same,"Feed intake, Mean","[1]; Day 20, 3 nmol/kg twice a week",2.7
same,"Feed intake, Mean","[1]; Day 20, 10 nmol/kg twice a week",2.4
same,"Feed intake, Mean","[1]; Day 20, 30 nmol/kg twice a week",1.9
same,"Feed intake, Mean","[1]; Day 21, 3 nmol/kg twice a week",3.0
same,"Feed intake, Mean","[1]; Day 21, 10 nmol/kg twice a week",3.1
same,"Feed intake, Mean","[1]; Day 21, 30 nmol/kg twice a week",3.1
same,"Feed intake, Mean","[1]; Day 22, 3 nmol/kg twice a week",3.1
same,"Feed intake, Mean","[1]; Day 22, 10 nmol/kg twice a week",3.2
same,"Feed intake, Mean","[1]; Day 22, 30 nmol/kg twice a week",3.4
same,"Feed intake, Mean","[1]; Day 23, 3 nmol/kg twice a week",2.9
same,"Feed intake, Mean","[1]; Day 23, 10 nmol/kg twice a week",2.7
same,"Feed intake, Mean","[1]; Day 23, 30 nmol/kg twice a week",2.3
same,"Feed intake, Mean","[1]; Day 24, 3 nmol/kg twice a week",3.1
same,"Feed intake, Mean","[1]; Day 24, 10 nmol/kg twice a week",3.1
same,"Feed intake, Mean","[1]; Day 24, 30 nmol/kg twice a week",3.3
same,"Feed intake, Mean","[1]; Day 25, 3 nmol/kg twice a week",2.9
same,"Feed intake, Mean","[1]; Day 25, 10 nmol/kg twice a week",3.3
same,"Feed intake, Mean","[1]; Day 25, 30 nmol/kg twice a week",3.2
same,"Feed intake, Mean","[1]; Day 26, 3 nmol/kg twice a week",3.0
same,"Feed intake, Mean","[1]; Day 26, 10 nmol/kg twice a week",3.3
same,"Feed intake, Mean","[1]; Day 26, 30 nmol/kg twice a week",3.2
same,"Feed intake, Mean","[1]; Day 27, 3 nmol/kg twice a week",2.8
same,"Feed intake, Mean","[1]; Day 27, 10 nmol/kg twice a week",2.7
same,"Feed intake, Mean","[1]; Day 27, 30 nmol/kg twice a week",2.2
same,"Feed intake, Mean","[1]; Day 28, 3 nmol/kg twice a week",2.7
same,"Feed intake, Mean","[1]; Day 28, 10 nmol/kg twice a week",3.2
same,"Feed intake, Mean","[1]; Day 28, 30 nmol/kg twice a week",3.2
same,"Feed intake, Mean","[2]; Day 0, 10 nmol/kg Single Inj.",3.2
same,"Feed intake, Mean","[2]; Day 1, 10 nmol/kg Single Inj.",2.0
same,"Feed intake, Mean","[2]; Day 2, 10 nmol/kg Single Inj.",2.5
same,"Feed intake, Mean","[2]; Day 3, 10 nmol/kg Single Inj.",2.3
same,"Feed intake, Mean","[2]; Day 4, 10 nmol/kg Single Inj.",2.3
same,"Feed intake, Mean","[2]; Day 5, 10 nmol/kg Single Inj.",2.7
same,"Feed intake, Mean","[2]; Day 6, 10 nmol/kg Single Inj.",2.8
same,"Feed intake, Mean","[2]; Day 7, 10 nmol/kg Single Inj.",3.3
same,"Feed intake, Mean","[2]; Day 8, 10 nmol/kg Single Inj.",3.3
same,"Feed intake, Mean","[2]; Day 9, 10 nmol/kg Single Inj.",3.6
